Experimental data from ChEMBL document CHEMBL1135538, “Synthesis of N-glyoxyl prolyl and pipecolyl amides and thioesters and evaluation of their in vitro and in vivo nerve regenerative effects” (J Med Chem, 2002).

What was measured:
Mus musculus [1] = assay: Percent recovery of tyrosine hydroxylase immunostaining in mice following 10 mg/kg p.o. administration after lesioning with MPTP.; format: functional, organism-based; design: dose 10 mg/kg; settings: at 10 mg/kg
Mus musculus [2] = assay: Percent recovery of tyrosine hydroxylase immunostaining after oral administration at dose 10 mg/kg concurrently with MPTP; format: functional, organism-based; design: dose 10 mg/kg
Gallus gallus = organism: Gallus gallus; assay: In vitro promotion of fiber extension (neurite outgrowth) from cultured chick sensory neuron; format: functional; settings: read-out: ED50 (the source's name)
Mus musculus [3] = assay: Percent recovery of tyrosine hydroxylase immunostaining after oral administration at dose 10 mg/kg after lesioning with MPTP (post-MPTP); format: functional, organism-based; design: dose 10 mg/kg
[4] = biological target: Peptidyl-prolyl cis-trans isomerase FKBP1A (Homo sapiens, UniProt P62942); assay: Inhibitory activity against FK506 binding protein 12
Mus musculus [5] = assay: Percent recovery of tyrosine hydroxylase immunostaining after peroral administration at dose 10 mg/kg after lesioning with MPTP (post-MPTP); format: functional, organism-based; design: dose 10 mg/kg
Mus musculus [6] = assay: Percent recovery of vtyrosine hydroxylase immunostaining after oral administration at dose 10 mg/kg after lesioning with MPTP (post-MPTP); format: functional, organism-based; design: dose 10 mg/kg

Chain of Peptidyl-prolyl cis-trans isomerase FKBP1A (P62942 whole entry): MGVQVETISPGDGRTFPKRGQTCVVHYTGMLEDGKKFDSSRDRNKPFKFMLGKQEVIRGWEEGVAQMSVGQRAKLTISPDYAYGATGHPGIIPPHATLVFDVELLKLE

Compound | Recovery (Mus musculus [1]) | Recovery (Mus musculus [2]) | other results
CCC(C)(C)C(=O)C(=O)N1CCC[C@H]1C(=O)SCCc1ccccc1 | 31.4% | 66% | EC50 (Gallus gallus): 0.77 nM
CCC(C)(C)C(=O)C(=O)N1CCC[C@H]1C(=O)NCCCc1ccccc1 |  |  | Recovery (Mus musculus [3]): 39%; Ki [4]: 1100 nM
CCC(C)(C)C(=O)C(=O)N1CCC[C@H]1C(=O)SCCCCc1ccccc1 |  | 48% | 
CCC(C)(C)C(=O)C(=O)N1CCCC[C@H]1C(=O)SCCC(c1ccccc1)c1ccccc1 | 72% | 81% | 
CCC(C)(C)C(=O)C(=O)N1CCCC[C@H]1C(=O)NCCCCc1cccnc1 | 29.4% |  | 
CCC(C)(C)C(=O)C(=O)N1CCC[C@H]1C(=O)NCCCCc1ccccc1 | 50.1% |  | 
O=C(C(=O)N1CCCC[C@H]1C(=O)NCCCCc1ccccc1)c1ccccc1 | 18.7% |  | 
CCC(C)(C)C(=O)C(=O)N1CCCC[C@H]1C(=O)NCCCc1ccccc1 | 65.3% |  | 
CCC(C)(C)C(=O)C(=O)N1CCC[C@H]1C(=O)NC | 16.1% |  | 
CCC(C)(C)C(=O)C(=O)N1CCC[C@H]1C(=O)SCCCc1ccc2ccccc2c1 |  | 36% | Recovery (Mus musculus [3]): 10%
CCC(C)(C)C(=O)C(=O)N1CCC[C@H]1C(=O)SCCC(c1ccccc1)c1ccccc1 |  | 39% | Recovery (Mus musculus [3]): 37%
CC(C)(C)C(=O)C(=O)N1CCCC[C@H]1C(=O)NCCCCc1ccccc1 | 44.9% |  | 
CCC(C)(C)C(=O)C(=O)N1CCCC[C@H]1C(=O)NC | 31.6% |  | 
CCC(C)(C)C(=O)C(=O)N1CCCC[C@H]1C(=O)NCCCCc1ccccc1 | 54.1% |  | 
CCC(C)(C)C(=O)C(=O)N1CCC[C@H]1C(=O)OCCCc1cccnc1 [GPI-1046] |  | 43% | Recovery (Mus musculus [5]): 35%; EC50 (Gallus gallus): 0.06 nM
CCC(C)(C)C(=O)C(=O)N1CCC[C@H]1C(=O)N(C)CCCc1ccccc1 | 20.5% |  | 

Compound | Recovery (Mus musculus [1]) | Recovery (Mus musculus [2]) | other results
CCC(C)(C)C(=O)C(=O)N1CCC[C@H]1C(=O)SCCCc1ccc(C(F)(F)F)cc1 |  | 71% | Recovery (Mus musculus [3]): 34%
CCC(C)(C)C(=O)C(=O)N1CCC[C@H]1C(=O)NCCCc1cccnc1 | 4.7% |  | Ki [4]: 820 nM
CCC(C)(C)C(=O)C(=O)N1CCCC[C@H]1C(=O)SCCCc1ccccc1 |  |  | Recovery (Mus musculus [6]): 30%
O=C(C(=O)N1CCC[C@H]1C(=O)SCCc1ccccc1)C1CCCC1 |  | 41% | 
CCC(C)(C)C(=O)C(=O)N1CCC[C@H]1C(=O)NCCCc1ccc(O)cc1 | 1.8% |  | 
CCC(C)(C)C(=O)C(=O)N1CCCC[C@H]1C(=O)NCCCCCc1ccccc1 | 37.4% |  | 
CCC(C)(C)C(=O)C(=O)N1CCC[C@H]1C(=O)SCCCc1ccccc1 |  | 72% | EC50 (Gallus gallus): < 0.01 nM
CCC(C)(C)C(=O)C(=O)N1CCC[C@H]1C(=O)NC(CCc1ccccc1)CCc1ccccc1 | 6.9% |  | 
CCC(C)(C)C(=O)C(=O)N1CCCC[C@H]1C(=O)SCCc1ccccc1 |  | 73% | 
CCC(C)(C)C(=O)C(=O)N1CCC[C@H]1C(=O)SCCCc1ccc(OC)cc1 |  |  | EC50 (Gallus gallus): 0.01 nM
CCC(C)(C)C(=O)C(=O)N1CCCC[C@H]1C(=O)NCCC(c1ccccc1)c1ccccc1 | 41.9% |  | Ki [4]: 420 nM
O=C(C(=O)N1CCC[C@H]1C(=O)SCCCc1ccccc1)C1CCCCC1 |  | 52% | 
CC(C)(C)C(=O)C(=O)N1CCC[C@H]1C(=O)NCCCc1ccccc1 | 28.1% |  | 
CCC(C)(C)C(=O)C(=O)N1CCCC[C@H]1C(=O)NCCCCc1ccc(O)cc1 | 60.4% |  | 
CCC(C)(C)C(=O)C(=O)N1CCC[C@H]1C(=O)SCCCc1cccnc1 |  | 31% | 
CCC(C)(C)C(=O)C(=O)N1CCC[C@H]1C(=O)NCCc1ccccc1 | 44.1% |  | 
